The subject of test [1] is SGC-7901 (human gastric cancer cells). In words: MTT cancer cell growth inhibition. Type of test: cell-based. As to conditions: Homo sapiens, SGC-7901, 72 h, MTT, 72 hours incubation, SGC-7901 cells; read-out: GI50 SGC-7901. In short, it runs like this: (§1)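 GI50 values come from MTT viability: after 72 h compound exposure (final 10^−5–10^−10 M, three wells each) of cells plated overnight at 1500/well in 10% FBS medium, MTT was given for 4 h. The DMSO-solubilised formazan was then measured at 570 nm.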

The test system of test [2] is lncap (prostate cancer cells). Nature of the test: MTT cancer cell growth inhibition. As to conditions: Homo sapiens, LNCaP, 72 h, MTT, 72 hours incubation, read-out: GI50 lnca. Type of test: cell-based. Summed up: as §1
For test [3], the system named is PANC-1 (Pac-1, human pancreatic cancer cells). In words: MTT cancer cell growth inhibition. As to conditions: Homo sapiens, PANC-1, 72 h, MTT, 72 hours incubation, read-out: GI50 PAN. It is filed as cell-based. In short, it runs like this:
as §1

Test [4] concerns Hela (human cervical cancer cells). Nature of the test: MTT cancer cell growth inhibition. Type of test: cell-based. As to conditions: Homo sapiens, HeLa, 72 h, MTT, 72 hours incubation, read-out: GI50 Hela. In short, it runs like this: as §1
For test [5], the system named is K562 (human leukemia cells). In words: MTT cancer cell growth inhibition. As to conditions: Homo sapiens, K562, 72 h, MTT, 72 hours incubation, K562 cells; read-out: GI50 K562. It is filed as cell-based. In short, it runs like this:
as §1

Test [6] relates to HT1080 (human fibrosarcoma cells). In words: MTT cancer cell growth inhibition. Type of test: cell-based. As to conditions: Homo sapiens, HT-1080, 72 h, MTT, 72 hours incubation, read-out: GI50 HT1. In short, it runs like this: as §1
Test [7] has as its system U937 (human leukemia cells). In words: MTT cancer cell growth inhibition. As to conditions: Homo sapiens, U-937, 72 h, MTT, 72 hours incubation, read-out: GI50 U93. It is filed as cell-based. Summed up:
as §1

The test system of test [8] is H1975 (non-small cell lung adenocarcinoma). In words: MTT cancer cell growth inhibition. Type of test: cell-based. As to conditions: Homo sapiens, NCI-H1975, 72 h, MTT, 72 hours incubation, H1975 cells; read-out: GI50 H1975. Summed up:
as §1

Test [9] deals with KBM5-T315I (human chronic myelogenous leukemia). In words: MTT cancer cell growth inhibition. Type of test: cell-based. As to conditions: Homo sapiens, 72 h, MTT, 72 hours incubation, KBM5-T315I cells; read-out: GI50 KBM5-T315I. Summed up: as §1
Test [10] deals with MOLT-4 (human acute lymphoblastic leukemia cells). In words: MTT cancer cell growth inhibition. It is filed as cell-based. As to conditions: Homo sapiens, MOLT-4, 72 h, MTT, 72 hours incubation, read-out: GI50 Mol. In short, it runs like this:
as §1

Test [11] has as its system Huh-7 (human hepatoma cells). In words: MTT cancer cell growth inhibition. It is filed as cell-based. As to conditions: Homo sapiens, Huh-7, 72 h, MTT, 72 hours incubation, Huh-7 cells; read-out: GI50 Huh-7. Summed up: as §1
Test [12] has as its system A549 (human lung cancer cells). In words: MTT cancer cell growth inhibition. Type of test: cell-based. As to conditions: Homo sapiens, A549, 72 h, MTT, 72 hours incubation, read-out: GI50 A54. Summed up:
as §1

Test [13] relates to HCC827 (human non-small cell lung cancer cells). In words: MTT cancer cell growth inhibition. It is filed as cell-based. As to conditions: Homo sapiens, HCC827, 72 h, MTT, 72 hours incubation, HCC827 cells; read-out: GI50 HCC827. Summed up:
as §1

Test [14] concerns KBM-5 (human chronic myelogenous leukemia). In words: MTT cancer cell growth inhibition. It is filed as cell-based. As to conditions: Homo sapiens, KBM5, 72 h, MTT, 72 hours incubation, KBM-5 cells; read-out: GI50 KBM-5. In short, it runs like this:
as §1

In test [15] the test system is DU145 (human prostate cancer cells). Nature of the test: MTT cancer cell growth inhibition. It is filed as cell-based. As to conditions: Homo sapiens, DU-145, 72 h, MTT, 72 hours incubation, read-out: GI50 Du1. Summed up:
as §1

Test [16] relates to N-87 (human gastric cancer cells). Nature of the test: MTT cancer cell growth inhibition. Type of test: cell-based. As to conditions: Homo sapiens, 72 h, MTT, 72 hours incubation, N-87 cells; read-out: GI50 N-87. Summed up:
as §1

Test [17] deals with Bel-7402 (human hepatoma cells). In words: MTT cancer cell growth inhibition. Type of test: cell-based. As to conditions: Homo sapiens, Bel-7402, 72 h, MTT, 72 hours incubation, Bel-7402 cells; read-out: GI50 Bel-7402. Summed up: as §1
In test [18] the test system is BGC-823 (human gastric cancer cells). Nature of the test: MTT cancer cell growth inhibition. It is filed as cell-based. As to conditions: Homo sapiens, BGC-823, 72 h, MTT, 72 hours incubation, read-out: GI50 BG. Summed up:
as §1

The test system of test [19] is MDA-MB-231 (breast cancer cells). In words: MTT cancer cell growth inhibition. As to conditions: Homo sapiens, MDA-MB-231, 72 h, read-out: GI50 MDA-MB-231, MTT, 72 hours incubation, MDA-MB-231 cells. It is filed as cell-based. Summed up:
as §1

Test [20] concerns MCF-7 (human breast cancer cells). Nature of the test: MTT cancer cell growth inhibition. It is filed as cell-based. As to conditions: Homo sapiens, MCF7, 72 h, 72 hours incubation, read-out: GI50 MCF. Summed up: as §1
The next test concerns the target T1, HDAC7 (Homo sapiens, UniProt Q8WUI4).
T1 sequence (Q8WUI4 1-952): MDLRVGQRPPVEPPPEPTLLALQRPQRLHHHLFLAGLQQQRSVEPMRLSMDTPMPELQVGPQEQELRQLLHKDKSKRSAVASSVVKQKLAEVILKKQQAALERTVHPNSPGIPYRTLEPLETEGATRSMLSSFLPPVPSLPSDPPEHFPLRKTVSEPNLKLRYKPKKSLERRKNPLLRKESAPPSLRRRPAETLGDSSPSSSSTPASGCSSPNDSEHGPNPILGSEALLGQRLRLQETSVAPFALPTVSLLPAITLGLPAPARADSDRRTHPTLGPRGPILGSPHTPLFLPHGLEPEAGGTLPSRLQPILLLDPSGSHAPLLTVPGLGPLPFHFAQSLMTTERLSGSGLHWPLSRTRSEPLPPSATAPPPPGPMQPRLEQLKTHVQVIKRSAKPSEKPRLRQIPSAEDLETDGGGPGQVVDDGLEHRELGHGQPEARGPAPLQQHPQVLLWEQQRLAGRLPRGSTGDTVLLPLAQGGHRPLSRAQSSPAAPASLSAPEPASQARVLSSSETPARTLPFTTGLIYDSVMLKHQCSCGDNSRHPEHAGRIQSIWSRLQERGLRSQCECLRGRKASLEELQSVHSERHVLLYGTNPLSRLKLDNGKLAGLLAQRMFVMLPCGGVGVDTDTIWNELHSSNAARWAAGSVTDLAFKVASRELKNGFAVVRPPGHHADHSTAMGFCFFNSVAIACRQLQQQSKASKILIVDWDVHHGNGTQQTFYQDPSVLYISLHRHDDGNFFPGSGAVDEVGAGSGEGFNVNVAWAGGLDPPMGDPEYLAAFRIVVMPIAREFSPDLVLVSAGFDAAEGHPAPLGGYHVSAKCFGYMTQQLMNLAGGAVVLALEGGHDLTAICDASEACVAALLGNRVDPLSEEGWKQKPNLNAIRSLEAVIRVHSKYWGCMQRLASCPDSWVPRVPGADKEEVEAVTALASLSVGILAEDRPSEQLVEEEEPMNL
Nature of the test: HDAC biochemical activity measurement (fluorescent substrate deacetylation).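 Also: fluorogenic deacetylation assay using acetyl-lysine substrate at 20 µM, enzyme and compound incubated 30 min at 37 °C, then developer added, fluorescence read at 360/460 nm.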 As to conditions: HDAC7; 37° C. 30 minutes.

Read-outs that look alike come from different tables or passages of the source.

As to `C/C=C1\NC(=O)c2ccc(SC)c(n2)CNC(=O)C[C@@H](/C=C/CCS)OC(=O)[C@H](C(C)C)NC1=O` [Compound 228], the GI50 (usually the concentration that inhibits growth by half) worked out at 12 nM in [1]; 20 nM in test [2] (lncap cells); 30 nM in test [3] (PANC-1 cells); 10 nM in [4] (Hela cells); 62 nM in test [5]; 40 nM in [6] (HT1080 cells). In addition, the GI50 in test [7] (U937 cells) came to 40 nM; in test [8] it was 48 nM; in test [9], 33 nM; in test [10] (MOLT-4 cells), 50 nM; in test [11], 35 nM; in [12] (A549 cells), 30 nM. In addition, the GI50 in test [13] is 17 nM; in test [14], 62 nM; in [15] (DU145 cells), 20 nM; in test [16], 35 nM; in [17], 56 nM; in [18] (BGC-823 cells), 60 nM. The GI50 in test [19] was determined as 69 nM; in [20] (MCF-7 cells) it was 30 nM. For the same molecule, the “IC50 HDAC7” value at HDAC7 is listed as “no activity”.
On to `C=C1NC(=O)c2cc(F)cc(n2)CNC(=O)C[C@@H](/C=C/CCSC(C)=O)OC(=O)[C@H](C)NC1=O` [Compound 91], for which the GI50 in [1] came to 48 nM; in test [2] it was 40 nM; in [3], 50 nM; in [4], 90 nM; in test [5] it was 26 nM; in test [6], 50 nM. For the same molecule, the GI50 was 30 nM in test [7]; 38 nM in test [8]; 31 nM in test [9]; 40 nM in test [10]; 46 nM in test [11]; 40 nM in test [12]. Also, the GI50 in test [13] came out at 51 nM; in test [14], 91 nM; in test [15], 20 nM; in [16], 62 nM; in test [17], 51 nM; in test [18], 60 nM. Also, the values for the concentration for 50% growth inhibition (GI50) in test [19] and in test [20] were 46 nM and 30 nM, respectively. Further, the “IC50 HDAC7” value at HDAC7 is listed as “no activity”.
`C/C=C1\NC(=O)c2nc(ccc2SC)CNC(=O)C[C@@H](/C=C/CCSC(=O)CCCCCC)OC(=O)[C@H](C(C)C)NC1=O` [Compound 150]: the GI50 in test [1] is 87 nM; in test [2] (lncap cells), 60 nM; in test [3] (PANC-1 cells) it was 30 nM; in [4] (Hela cells) it was 60 nM; in test [5], 55 nM; in [6] (HT1080 cells), 80 nM. For the same molecule, the GI50 in [7] (U937 cells) amounted to 30 nM; in test [8] it was 79 nM; in [9], 39 nM; in test [10] (MOLT-4 cells) it was 80 nM; in [11] it was 46 nM; in test [12] (A549 cells) it was 30 nM. The GI50 in test [13] turned out to be 63 nM; in test [14], 26 nM; in [15] (DU145 cells), 40 nM; in test [16], 33 nM; in [17] it was 58 nM; in test [18] (BGC-823 cells), 30 nM. Besides, the concentration for 50% growth inhibition (GI50) in test [19] is 21 nM; in test [20] (MCF-7 cells) it was 40 nM. Moreover, the “IC50 HDAC7” value against HDAC7 is listed as “no activity”.
Turning to `C/C=C1\NC(=O)c2ccc(SC)c(n2)CNC(=O)C[C@@H](/C=C/CCSC(=O)CCCC)OC(=O)[C@H](C(C)C)NC1=O` [Compound 158], the 50% growth inhibitory concentration (GI50) in test [1] is 27 nM; in [2] (lncap cells), 40 nM; in [3] (PANC-1 cells), 20 nM; in test [4] (Hela cells), 60 nM; in test [5] it was 48 nM; in [6] (HT1080 cells), 70 nM. Further, the GI50 in [7] (U937 cells) turned out to be 40 nM; in test [8], 49 nM; in test [9] it was 27 nM; in test [10] (MOLT-4 cells) it was 80 nM; in test [11] it was 41 nM; in test [12] (A549 cells), 30 nM. Besides, the concentration for 50% growth inhibition (GI50) in test [13] came out at 91 nM; in test [14] it was 46 nM; in test [15] (DU145 cells), 60 nM; in test [16], 38 nM; in [17] it was 45 nM; in test [18] (BGC-823 cells), 30 nM. In addition, the results for the GI50 in test [19] and in [20] (MCF-7 cells) were 46 nM and 20 nM, respectively. Moreover, the “IC50 HDAC7” value at HDAC7 was “no activity”.
With `C/C=C1\NC(=O)c2ccc(F)c(n2)CNC(=O)C[C@@H](/C=C/CCSC(C)=O)OC(=O)[C@@H](C)NC1=O` [Compound 102], the concentration for 50% growth inhibition (GI50) in test [1] is 31 nM; in test [2], 30 nM; in [3], 50 nM; in [4], 30 nM; in test [5] it was 28 nM; in test [6], 50 nM. The concentration for 50% growth inhibition (GI50) stood at 40 nM in test [7]; 35 nM in test [8]; 71 nM in [9]; 30 nM in test [10]; 73 nM in test [11]; 50 nM in test [12]. The GI50 amounted to 58 nM in test [13]; 67 nM in test [14]; 20 nM in test [15]; 46 nM in test [16]; 11 nM in [17]; 30 nM in test [18]. Further, the figures for the GI50 in [19] and in test [20] were 26 nM and 30 nM, respectively. At HDAC7, the “IC50 HDAC7” value is on record as “no activity”.
